The values that follow come from patent publication US7205295B2, “Benzoxazin-3-ones and derivatives thereof as therapeutic agents” (Warner-Lambert Company LLC, priority 2002, dated 2007).

Usually IC50 stands for the midpoint of a concentration-inhibition curve.

T1 sequence (P48736 whole entry, species assumed): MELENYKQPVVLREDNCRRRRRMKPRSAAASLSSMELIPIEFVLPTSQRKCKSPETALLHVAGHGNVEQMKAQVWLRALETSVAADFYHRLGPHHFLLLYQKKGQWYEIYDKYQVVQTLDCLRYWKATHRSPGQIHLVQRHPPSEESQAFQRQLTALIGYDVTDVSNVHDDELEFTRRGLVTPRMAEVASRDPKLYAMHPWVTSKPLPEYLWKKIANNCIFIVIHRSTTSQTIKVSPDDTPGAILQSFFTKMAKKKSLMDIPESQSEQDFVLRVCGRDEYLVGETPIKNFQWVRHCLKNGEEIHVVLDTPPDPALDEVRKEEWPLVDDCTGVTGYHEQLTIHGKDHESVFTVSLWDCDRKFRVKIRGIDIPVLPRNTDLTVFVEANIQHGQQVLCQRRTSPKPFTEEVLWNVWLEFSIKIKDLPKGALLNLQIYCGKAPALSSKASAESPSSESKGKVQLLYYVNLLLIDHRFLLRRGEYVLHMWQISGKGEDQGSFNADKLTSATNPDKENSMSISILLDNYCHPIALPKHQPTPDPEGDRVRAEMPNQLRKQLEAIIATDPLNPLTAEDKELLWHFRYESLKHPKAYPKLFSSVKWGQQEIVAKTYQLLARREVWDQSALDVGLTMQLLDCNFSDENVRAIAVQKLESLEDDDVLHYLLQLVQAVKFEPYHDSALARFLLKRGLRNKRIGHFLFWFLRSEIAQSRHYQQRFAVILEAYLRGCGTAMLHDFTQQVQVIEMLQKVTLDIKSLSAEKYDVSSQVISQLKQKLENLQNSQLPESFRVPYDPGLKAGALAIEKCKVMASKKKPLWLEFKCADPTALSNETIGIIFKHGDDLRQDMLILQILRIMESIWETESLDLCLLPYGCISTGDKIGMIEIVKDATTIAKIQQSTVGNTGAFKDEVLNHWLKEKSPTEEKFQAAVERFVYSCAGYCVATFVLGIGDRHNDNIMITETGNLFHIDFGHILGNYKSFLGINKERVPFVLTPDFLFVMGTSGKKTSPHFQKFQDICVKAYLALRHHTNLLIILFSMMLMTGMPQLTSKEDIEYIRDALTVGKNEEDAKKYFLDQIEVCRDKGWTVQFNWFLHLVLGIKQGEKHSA
T1 sequence (Q8WYR1 whole entry partner, species assumed): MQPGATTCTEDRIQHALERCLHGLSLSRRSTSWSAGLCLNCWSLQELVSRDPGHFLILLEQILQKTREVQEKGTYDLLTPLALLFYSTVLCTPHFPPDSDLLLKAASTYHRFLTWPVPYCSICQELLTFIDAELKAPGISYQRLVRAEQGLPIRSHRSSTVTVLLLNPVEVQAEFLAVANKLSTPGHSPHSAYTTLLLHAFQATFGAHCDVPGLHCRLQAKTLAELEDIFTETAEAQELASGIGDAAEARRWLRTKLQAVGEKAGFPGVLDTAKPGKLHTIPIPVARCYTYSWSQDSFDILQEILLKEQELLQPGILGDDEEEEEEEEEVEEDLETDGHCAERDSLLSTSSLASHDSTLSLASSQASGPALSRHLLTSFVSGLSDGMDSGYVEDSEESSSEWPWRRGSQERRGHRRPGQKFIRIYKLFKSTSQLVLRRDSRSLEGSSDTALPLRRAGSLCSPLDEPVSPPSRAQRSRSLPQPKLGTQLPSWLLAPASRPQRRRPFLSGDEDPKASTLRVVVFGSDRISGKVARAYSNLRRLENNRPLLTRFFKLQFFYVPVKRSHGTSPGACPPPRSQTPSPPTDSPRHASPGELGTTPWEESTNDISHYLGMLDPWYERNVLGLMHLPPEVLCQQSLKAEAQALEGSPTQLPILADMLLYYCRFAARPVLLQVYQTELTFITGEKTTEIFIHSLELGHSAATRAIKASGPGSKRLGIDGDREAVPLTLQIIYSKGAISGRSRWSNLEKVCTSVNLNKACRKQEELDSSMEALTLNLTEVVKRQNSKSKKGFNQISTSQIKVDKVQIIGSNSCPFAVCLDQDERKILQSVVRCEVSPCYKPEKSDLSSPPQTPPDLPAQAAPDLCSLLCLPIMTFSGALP

The experiment addresses T1, PI3Kγ (p101/p110γ protein) (Homo sapiens, UniProt P48736).
T1 construct: HA; made in house; host or cells: Spodoptera frugiperda (Sf9) cells, baculovirus co-infection
Briefly: PI3Kγ In Vitro Kinase Assay. It is filed as biochemical. The note with it: purified recombinant p101/p110γ with G protein β1/γ2 subunits; 20 μM ATP, 25 μM PIP2; 20 minutes at room temperature. The method, boiled down: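 Sf9-expressed, purified human p101/p110γ (2.7 nM) was activated by Gβ1/γ2 (57.7 nM) and reacted with 20 μM ATP plus [γ-32P]ATP on PIP2 (25 μM)/PE (300 μM) micelles with 10 mM MgCl2 in HEPES buffer. Reactions ran 20 min at room temperature. Filter-captured radiolabeled PIP3 was counted by scintillation.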
Take `Cc1ccc(CN2C(=O)COc3ccc(C=C4SC(=S)NC4=O)cc32)cc1` [Example 140, 4-(4-Methyl-benzyl)-6-(4-oxo-2-thioxo-thiazolidin-5-ylidenemethyl)-4H-benzo[1,4]oxazin-3-one]: the IC50 was 0.029 µM.
The same measure for `NC(=O)CN1C(=O)COc2ccc(C=C3SC(=S)NC3=O)cc21` [Example 141, 2-[3-Oxo-6-(4-oxo-2-thioxo-thiazolidin-5-ylidenemethyl)-2,3-dihydrobenzo[1,4]oxazin-4-yl]-acetamide]: 0.86 µM.
In the case of `O=C1NC(=S)SC1=Cc1ccc2c(c1)N(CC1CCCCC1)C(=O)CO2` [Example 143, 4-Cyclohexylmethyl-6-(4-oxo-2-thioxo-thiazolidin-5-ylidenemethyl)-4H-benzo[1,4]oxazin-3-one] it was 0.035 µM; in that of `CC(C)CCN1C(=O)COc2ccc(C=C3SC(=S)NC3=O)cc21` [Example 144, 4-(3-Methyl-butyl)-6-(4-oxo-2-thioxo-thiazolidin-5-ylidenemethyl)-4H-benzo[1,4]oxazin-3-one], 0.024 µM; in that of `O=C1NC(=S)SC1=Cc1ccc2c(c1)N(CC1CC1)C(=O)CO2` [Example 145, 4-Cyclopropylmethyl-6-(4-oxo-2-thioxo-thiazolidin-5-ylidenemethyl)-4H-benzo[1,4]oxazin-3-one], 0.026 µM.
With `O=C1NC(=S)SC1=Cc1ccc2c(c1)N(Cc1ccsc1)C(=O)CO2` [Example 146, 6-(4-Oxo-2-thioxo-thiazolidin-5-ylidenemethyl)-4-thiophen-3-ylmethyl-4H-benzo[1,4]oxazin-3-one], the IC50 worked out at 0.03 µM.
The same measure for `O=C1NC(=S)SC1=Cc1ccc2c(c1)N(Cc1ccccn1)C(=O)CO2` [Example 147, 6-(4-Oxo-2-thioxo-thiazolidin-5-ylidenemethyl)-4-pyridin-2-ylmethyl-4H-benzo[1,4]oxazin-3-one]: 0.049 µM.
With `O=C1NC(=S)SC1=Cc1ccc2c(c1)N(Cc1ccncc1)C(=O)CO2` [Example 148, 6-(4-Oxo-2-thioxo-thiazolidin-5-ylidenemethyl)-4-pyridin-4-ylmethyl-4H-benzo[1,4]oxazin-3-one], the IC50 is 0.061 µM.
Regarding `N#Cc1cccc(CN2C(=O)COc3ccc(C=C4SC(=S)NC4=O)cc32)c1` [Example 149, 3-[3-Oxo-6-(4-oxo-2-thioxo-thiazolidin-5-ylidenemethyl)-2,3-dihydro-benzo[1,4]oxazin-4-ylmethyl]-benzonitrile], the IC50 is 0.021 µM.
Turning to `Cc1cc(C)cc(CN2C(=O)COc3ccc(C=C4SC(=S)NC4=O)cc32)c1` [Example 150, 4-(3,5-Dimethyl-benzyl)-6-(4-oxo-2-thioxo-thiazolidin-5-ylidenemethyl)-4H-benzo[1,4]oxazin-3-one], the IC50 came out at 0.005 µM.
As for `C[C@@H]1Oc2ccc(C=C3SC(=S)NC3=O)cc2N(Cc2ccc3ccccc3c2)C1=O` [Example 152, (S)-2-Methyl-4-naphthalen-2-ylmethyl-6-(4-oxo-2-thioxo-thiazolidin-5-ylidenemethyl)-4H-benzo[1,4]oxazin-3-one], the IC50 is 1.03 µM.
In the case of `COc1cc(C=C2SC(=S)NC2=O)cc2c1OCC(=O)N2Cc1ccccc1` [Example 153, 4-Benzyl-8-methoxy-6-(4-oxo-2-thioxo-thiazolidin-5-ylidenemethyl)-4H-benzo[1,4]oxazin-3-one] it was 0.096 µM.
As to `Cc1cc(C=C2SC(=S)NC2=O)cc2c1OCC(=O)N2` [Example 154, 8-Methyl-6-(4-oxo-2-thioxo-thiazolidin-5-ylidenemethlyl)-4H-benzo[1,4]oxazin-3-one], the half-inhibitory concentration (IC50) is 0.16 µM.
With `CC(C)(C)CCN1C(=O)COc2ccc(C=C3SC(=S)NC3=O)cc21` [Example 155, 4-(3,3-Dimethyl-butyl)-6-(4-oxo-2-thioxo-thiazolidin-5-ylidenemethyl)-4H-1,4-benzoxazin-3-one], the IC50 came out at 0.01 µM.
For the compound `O=C1NC(=S)SC1=Cc1ccc2c(c1)N(Cc1cccc(OC(F)(F)F)c1)C(=O)CO2` [Example 156, 6-(4-Oxo-2-thioxo-thiazolidin-5-ylidenemethyl)-4-(3-trifluoromethoxy-benzyl)-4H-1,4-benzoxazin-3-one], the half-maximal inhibitory concentration (IC50) came out at 0.021 µM.
For the compound `O=C1NC(=S)SC1=Cc1ccc2c(c1)N(Cc1cccc(C(F)(F)F)c1)C(=O)CO2` [Example 157, 6-(4-Oxo-2-thioxo-thiazolidin-5-ylidenemethyl)-4-(3-trifluoromethyl-benzyl)-4H-1,4-benzoxazin-3-one], the half-maximal inhibitory concentration (IC50) came to 0.021 µM.
The same measure for `O=C1NC(=S)SC1=Cc1ccc2c(c1)N(Cc1ccc(C(F)(F)F)cc1)C(=O)CO2` [Example 158, 6-(4-Oxo-2-thioxo-thiazolidin-5-ylidenemethyl)-4-(4-trifluoromethyl-benzyl)-4H-1,4-benzoxazin-3-one]: 0.028 µM.
In the case of `O=C1NC(=S)SC1=Cc1ccc2c(c1)N(Cc1ccccc1-c1ccccc1)C(=O)CO2` [Example 159, 4-Biphenyl-2-ylmethyl-6-(4-oxo-2-thioxo-thiazolidin-5-ylidenemethyl)-4H-1,4-benzoxazin-3-one] it was 0.01 µM; in that of `O=C1NC(=S)SC1=Cc1ccc2c(c1)N(CCCc1ccccc1)C(=O)CO2` [Example 160, 6-(4-Oxo-2-thioxo-thiazolidin-5-ylidenemethyl)-4-(3-phenyl-propyl)-4H-1,4-benzoxazin-3-one], 0.007 µM; in that of `O=C1NC(=S)SC1=Cc1ccc2c(c1)N(CCCOc1ccccc1)C(=O)CO2` [Example 161, 6-(4-Oxo-2-thioxo-thiazolidin-5-ylidenemethyl)-4-(3-phenoxy-propyl)-4H-1,4-benzoxazin-3-one], 0.004 µM.
In the case of `O=C1NC(=S)SC1=Cc1ccc2c(c1)N(Cc1ccc(C=Cc3ccccc3)cc1)C(=O)CO2` [Example 162, 6-(4-Oxo-2-thioxo-thiazolidin-5-ylidenemethyl)-4-(4-styryl-benzyl)-4H-1,4-benzoxazin-3-one] it was 0.053 µM.
For the compound `O=C1NC(=S)SC1=Cc1ccc2c(c1)N(Cc1ccc(OCc3ccccc3)cc1)C(=O)CO2` [Example 163, 4-(4-Benzyloxy-benzyl)-6-(4-oxo-2-thioxo-thiazolidin-5-ylidenemethyl)-4H-1,4-benzoxazin-3-one], the IC50 came out at 0.03 µM.
Consider `O=C1NC(=S)SC1=Cc1ccc2c(c1)N(Cc1cccc(OC(F)F)c1)C(=O)CO2` [Example 164, 4-(3-Difluoromethoxy-benzyl)-6-(4-oxo-2-thioxo-thiazolidin-5-ylidenemethyl)-4H-1,4-benzoxazin-3-one], for which the 50% inhibitory concentration (IC50) stood at 0.013 µM.
For `O=C1NC(=S)SC1=Cc1ccc2c(c1)N(Cc1cccc(SC(F)(F)F)c1)C(=O)CO2` [Example 165, 6-(4-Oxo-2-thioxo-thiazolidin-5-ylidenemethyl)-4-(3-trifluoromethylsulfanyl-benzyl)-4H-1,4-benzoxazin-3-one], the IC50 turned out to be 0.015 µM.
With `O=C1NC(=S)SC1=Cc1ccc2c(c1)N(Cc1ccccc1OC(F)(F)F)C(=O)CO2` [Example 166, 6-(4-Oxo-2-thioxo-thiazolidin-5-ylidenemethyl)-4-(2-trifluoromethoxy-benzyl)-4H-1,4-benzoxazin-3-one], the half-inhibitory concentration (IC50) was 0.02 µM.
`COc1ccc(CN2C(=O)COc3ccc(C=C4SC(=S)NC4=O)cc32)cc1C(F)(F)F` [Example 167, 4-(4-Methoxy-3-trifluoromethyl-benzyl)-6-(4-oxo-2-thioxo-thiazolidin-5-ylidenemethyl)-4H-1,4-benzoxazin-3-one]: the IC50 was 0.01 µM.
In the case of `O=C1NC(=S)SC1=Cc1ccc2c(c1)N(Cc1ccc(SC(F)(F)F)cc1)C(=O)CO2` [Example 168, 6-(4-Oxo-2-thioxo-thiazolidin-5-ylidenemethyl)-4-(4-trifluoromethylsulfanyl-benzyl)-4H-1,4-benzoxazin-3-one], the IC50 came out at 0.012 µM.
Consider `O=C1NC(=S)SC1=Cc1ccc2c(c1)N(Cc1ccccc1SC(F)(F)F)C(=O)CO2` [Example 169, 6-(4-Oxo-2-thioxo-thiazolidin-5-ylidenemethyl)-4-(2-trifluoromethylsulfanyl-benzyl)-4H-1,4-benzoxazin-3-one], for which the IC50 is 0.008 µM.
In the case of `O=C1NC(=S)SC1=Cc1ccc2c(c1)N(Cc1cccc(Oc3ccccc3)c1)C(=O)CO2` [Example 170, 6-(4-Oxo-2-thioxo-thiazolidin-5-ylidenemethyl)-4-(3-phenoxy-benzyl)-4H-1,4-benzoxazin-3-one] it was 0.009 µM; in that of `O=C1NC(=S)SC1=Cc1ccc2c(c1)N(CC1CC3C=CC1C3)C(=O)CO2` (stereo not shown) [Example 171, 4-Bicyclo[2.2.1]hept-5-en-2-ylmethyl-6-(4-oxo-2-thioxo-thiazolidin-5-ylidenemethyl)-4H-1,4-benzoxazin-3-one], 0.015 µM; in that of `NC(=O)c1cccc(CN2C(=O)COc3ccc(C=C4SC(=S)NC4=O)cc32)c1` [Example 172, 3-[3-Oxo-6-(4-oxo-2-thioxo-thiazolidin-5-ylidenemethyl)-2,3-dihydro-1,4-benzoxazin-4-ylmethyl]-benzamide], 0.145 µM.
Turning to `CC(CN1C(=O)COc2ccc(C=C3SC(=S)NC3=O)cc21)c1ccccc1` (stereo not shown) [Example 173, 6-(4-Oxo-2-thioxo-thiazolidin-5-ylidenemethyl)-4-(2-phenyl-propyl)-4H-1,4-benzoxazin-3-one], the IC50 is 0.039 µM.
Take `O=C1NC(=S)SC1=Cc1ccc2c(c1)N(CCCCc1ccccc1)C(=O)CO2` [Example 174, 6-(4-Oxo-2-thioxo-thiazolidin-5-ylidenemethyl)-4-(4-phenyl-butyl)-4H-1,4-benzoxazin-3-one]: the IC50 turned out to be 0.002 µM.
`O=C1NC(=S)SC1=Cc1ccc2c(c1)N(CCCCCc1ccccc1)C(=O)CO2` [Example 175, 6-(4-Oxo-2-thioxo-thiazolidin-5-ylidenemethyl)-4-(5-phenyl-pentyl)-4H-1,4-benzoxazin-3-one]: the IC50 was 0.004 µM.
